Laboratory results as given in article PMC10718076, “1,2-Disubstituted bicyclo[2.1.1]hexanes as saturated bioisosteres of ortho-substituted benzene” (Chemical Science, 2023).
In brackets after ≈: the same amount, converted by molar mass. Like-named read-outs stand apart in the source and are kept apart here. Values belong to the compound of their own block, whether it stands above or below them.

Assays:
physchem = details: pH 7.4, LogD, pH 7.4
[1] = Kinetic solubility in phosphate-buffered saline, pH 7.4; format: physicochemical; details: 25 °C, pH 7.4, aqueous buffer, kinetic from dmso stock; for solubility at 2 h: PBS solubility
Procedure: Analysis of Aqueous Solubility […]
compound (Ondansetron) were assessed for kinetic solubility in phosphate -buffered saline, pH 7.4.
Phosphate buffered saline, pH 7.4 (Sigma -Aldrich, USA; Cat #P3813) […]
MultiScreen HTS 96 Well Filter Plates (Millipore, Ireland; Cat # MSSLBPC10) […]
Matrix Multichannel Electronic Pipette 2-125 μL, 5-250 μL, 15-1250 μL (Thermo Scientific, USA; […]
Vacuum pump (Millipore, USA; Model # XX5500000)
The measurements were performed using SpectraMax Plus reader in UV -Vis mode. Acquisition and […]
The measurements were performed using SpectraMax Paradigm reader in UV-Vis mode.
Acquisition and analysis of the data were performed using SoftMax Pro v.5.4 (Molecular Devices) […]
Kinetic solubility assay was performed according to the Enamine’s aqueous solubility SOP. Briefly, using a 20 mM stock solution of the compound in 100% DMSO dilutions were prepared to a theoretical concentration of 400 μM in duplicates in phosphate-buffered saline pH 7.4 […]
compound dilutions in PBS were further allowed to equilibrate at 25 °C on a thermostatic shaker for two hours and then filtered through HTS filter plates using a vacuum manifold. The filtrates of test compounds were diluted 2-fold with acetonitrile with 2% DMSO before measuring.
In parallel, compound dilutions in 50% acetonitrile/PBS were prepared to theoretical concentrations […]
calibration curves. Ondansetron was used as reference compound to control proper assay performance. 200 μl of each sample was transferred to 96-well plate and measured in 230-550 nm range with 5 nm step. The effective range of this assay is approximately 2-400 μM and the […]
The concentrations of compounds in PBS filtrate are calculated using a dedicated Microsoft Excel calculation script. Proper absorbance wavelengths for calculations are selected for each compound manually based on absorbance maximums (absolute absorbance unit values for the minimum and maximum concentration points within the 0 – 3 OD range). Each final dataset is visually evaluated by the operator, and goodness of fit (R2) is calculated for each calibration curve. […]
samples were diluted 2-fold with acetonitrile containing internal standard and were analyzed using the HPLC system coupled with a tandem mass spectrometer. The effective range of this assay is […]

in vitro = details: both, human
[2] = both, human, pH 7.4
[3] = tested on: Aspergillus niger (strain VURV-F 822); assay: Antifungal disk diffusion method; format: cell-based
Procedure: Antifungal activity of the synthetic compounds using disk diffusion methods The compounds were tested for plant pathogens Aspergillus niger (strain VURV-F 822), which was received from Culture collection of microorganisms of Crop Research Institute (Prague, Czech […]
The synthetic compounds' antifungal activity was evaluated using a disk diffusion assay for testing filamentous fungi (CLSI M51-A) and broth microdilution antifungal susceptibility testing (EUCAST E.DEF 7.3.1; CLSI M38-A2)
[CLSI M51-A. Method for Antifungal Disk Diffusion Susceptibility Testing of Nondermatophyte Filamentous Fungi; Approved Guideline.CLSI document M51-A. Wayne, PA:
Clinical and Laboratory Standards Institute; 2010. This method is standardized for Altenaria, Aspergillus, Bipolaris, Fusarium, order Mucorales, etc.]
[CLSI M38-A2. 2008. Reference method for broth dilution antifungal susceptibility testing of filamentous fungi, 2nd ed Approved standard M38 -A2 Clinical and Laboratory Standards Institute, […]
Antifungal disk diffusion method
The solutions of fungicides and their analogues were diluted in dimethyl sulfoxide (DMSO) to […]
mg/mL for each test component. Sterile paper disks (ASPECT, Ukraine) were soaked with 10 μl of a solution of the appropriate fungicide from the highest concentration to the lowest.
The fungal strains were cultured on Petri dishes with Saburo dextrose agar (Condalab, Spain) and incubated at 25 °C for 5 days. Sterile Dulbecco's phosphate -buffered saline (DPBS) with 0,1 % Tween 20 was used to cover colonies of fungus for obtained conidia l suspension. Suspension of conidia was adjusted to inoculums 2×10^5 conidia/mL by sterile DPBS.
For antifungal disk diffusion test we used square Petri dishes (FALCON A Corning Brand, USA). The conidial suspension (0.5 mL) was added to Petri dishes with Saburo dextrose agar. The suspension was evenly distributed over the surface of the nutrient medium with a glass spatula.
After the surface of the inoculated medium was dry, the disks with different concentrations of testing compounds were added to the Petri dishes. Each compound was tested in triplicate at different concentrations. Growth control was a disk with 10 μl of DMSO, which was used for test […]
Petri dishes incubated at 25 °C for 72 h. The test compounds at known concentrati on into contact with an inoculated medium then exert a growth-inhibiting effect then a clear zone (the zone of […]
inhibition) appears around the test product. The diameter of a clear zone around the well is […]
If the fungal strain is susceptible to the antifungal agent, then a zone of inhibition appears on the agar plate. If it is resistant to the test compound, then no zone is evident. The size of the zone of inhibition is usually related to the level of antifungal activity present in the compound – a larger […]
The growth rate of all strains for each concentration of test compounds was determined visually and compared with the growth of control.
Broth microdilution antifungal susceptibility testing
A 96-well CELLSTAR plate (sterile, flat-bottomed, polystyrene, transparent) was used to determine MIC by broth microdilution method. Also, dabble straight RPMI-1640 medium with 2% glucose (2x RPMI 2%G) was used for this method. Spore suspension for plate inoculation was prepared according to the method described above for the disc diffusion method.
The each well in the plate contained 49 μl of medium (2x RPMI 2%G), 50 μl of inoculum (prepared in DPBS) and 1 μl of the stock solution of the test substance. Positive control wells contained 50 μl medium and 50 μl inoculum, and sterile control wells contained 50 μl medium and […]
To determine the MIC by the microdilution method, a series of stock solutions of fungicides and their analogues in DMSO with the following concentrations were prepared: 3.2 mg/mL, 1.6 mg/mL, […]
1 μl of the stock solutions of the test substances were added to each well to obtain the following […]
Immediately after adding all the components to the plates, the optical density was measured at […]

[4] = Table S5, injection 1, octanol/PBS pH 7.4
[5] = Table S5, injection 2, octanol/PBS pH 7.4
[6] = Table S5, injection 3, octanol/PBS pH 7.4
[7] = microsomes, pH 7.4, % Remaining, Mean of 2

logD at 1 h (physchem): 4.3
D [4]: 1.98E+04
D [5]: 2.11E+04
D [6]: 1.99E+04
solubility kinetic at 2 h [1]: 5 µM (≈ 2.49 µg/mL)
solubility at 2 h ([1]; pH 7.4, Incubation 1): 4 µM (≈ 1.99 µg/mL)
solubility at 2 h ([1]; pH 7.4, Incubation 2): 7 µM (≈ 3.49 µg/mL)
solubility at 2 h ([1]; pH 7.4, Mean): 5 µM (≈ 2.49 µg/mL)
microsomal CLint at 2 μM (in vitro; microsomes, pH 7.4): 31 µL/min/mg
remaining at 40 min, 2 µM (in vitro; microsomes, pH 7.4, % Remaining without cofactor, Mean of 2): 101%
remaining at 25 min, 2 µM (in vitro; [7]): 67%
remaining at 40 min, 2 µM (in vitro; [7]): 60%
half-life at 2 µM (in vitro; microsomes, pH 7.4, t1/2): 54.4 min
k el at 2 µM (in vitro; pH 7.4, kel): 0.000217 s⁻¹
SMILES: Cc1nc2c([nH]1)-c1ccccc1N(C(=O)c1ccc(NC(=O)c3ccccc3-c3ccccc3)cc1)CC2 [Conivaptan, conivaptan]

% Remaining, Mean of 2 ([2]; microsomes, 25 min, 2 µM): 9%
% Remaining, Mean of 2 ([2]; s9, 25 min, 2 μM): 9%
microsomal CLint at 2 µM (in vitro; microsomes, pH 7.4): 173 µL/min/mg
microsomal CLint at 2 μM (in vitro; microsomes, pH 7.4): 272 µL/min/mg
k el at 2 µM (in vitro; pH 7.4, kel): 0.0012 s⁻¹
k el at 2 μM (in vitro; pH 7.4, kel): 0.00123 s⁻¹
microsomal CLint at 2 μM (in vitro; s9, pH 7.4): 178 µL/min/mg
SMILES: O=C(O)Cc1ccccc1Nc1c(Cl)cccc1Cl [Diclofenac]

D [4]: 3.37E+03
D [5]: 2.99E+03
D [6]: 3.24E+03
solubility kinetic at 2 h [1]: 25 µM (≈ 9.53 µg/mL)
MIC ([3]; disk diffusion, small zones of inhibition with secondary mycelial growth, read-out: minimum inhibitory concentration): 4 µg/mL (≈ 10.5 µM)
SMILES: Cn1cc(C(=O)Nc2ccccc2-c2cc(F)c(F)c(F)c2)c(C(F)F)n1 [Fluxapyroxad, fluxapyroxad]
zone of inhibition at 4 µg/mL ([3]; Concentration 0.004 mg/mL, 0 = absence of antifungal activity, Boscalid, Fluxapyroxad, Bixafen marked st, read-out: Diameter of inhibition zone): 8 ± 2 mm
zone of inhibition at 8 µg/mL ([3]; Concentration 0.008 mg/mL, 0 = absence of antifungal activity, read-out: Diameter of inhibition zone): 11.8 ± 1.25 mm
zone of inhibition at 16 µg/mL ([3]; Concentration 0.016 mg/mL, 0 = absence of antifungal activity, read-out: Diameter of inhibition zone): 14.5 ± 0.5 mm
zone of inhibition at 30 µg/mL ([3]; Concentration 0.03 mg/mL, 0 = absence of antifungal activity, (±)-29 marked st, read-out: Diameter of inhibition zone): 18.2 ± 0.4 mm
zone of inhibition at 60 µg/mL ([3]; Concentration 0.06 mg/mL, 0 = absence of antifungal activity, Fluxapyroxad, Bixafen, (±)-29 marked st, read-out: Diameter of inhibition zone): 22.2 ± 1.25 mm
zone of inhibition at 120 µg/mL ([3]; Concentration 0.12 mg/mL, (±)-28 marked st (static growth), read-out: Diameter of inhibition zone): 25.2 ± 1.5 mm
zone of inhibition at 250 µg/mL ([3]; Concentration 0.25 mg/mL, (±)-28 marked st (static growth, secondary growth of mycelium), read-out: Diameter of inhibition zone): 30 ± 0.5 mm
zone of inhibition at 500 µg/mL ([3]; Concentration 0.5 mg/mL, 10 μl per disk, read-out: Diameter of inhibition zone): 34.5 ± 0.75 mm
zone of inhibition at 1000 µg/mL ([3]; Concentration 1 mg/mL, 10 μl per disk, read-out: Diameter of inhibition zone): 39.2 ± 2.25 mm
zone of inhibition at 2000 µg/mL ([3]; Concentration 2 mg/mL, 10 μl per disk, read-out: Diameter of inhibition zone): 40.8 ± 1.6 mm

logD at 1 h (physchem): 2.82
SMILES: COC(=O)Nc1nc2ccc(C(=O)c3ccccc3)cc2[nH]1 [Mebendazole]
